Laboratory results as given in patent publication US4060652A (priority 1976, dated 1977).

Experiments:
[1] = test system: straight muscles of the frog abdomen; test: Isolated straight muscle of frog abdomen, antagonism of acetylcholine; parameters: species or system frog (Rana tempraria)
Source text: In experiments on isolated straight muscles of the frog abdomen (Rana tempraria) the concentration of Tercuronium, that weakened the action acetylcholine, was 2.0 ± 0.04 × × 10^-7 m/l.

[2] = test system: M-cholinoreceptors; test: Depression after intravenous acetylcholine in cats; assay type: in vivo; conditions: 0.1 to 1.0 mcM/kg; acetylcholine 3 mg/kg; three cats
Description: (§1) Experiments were carried out on narcotized cats (chloralose and urethane, intraperitoneally).

[3] = test system: M-cholinoreceptors and conduction in parasympathetic ganglia; test: Effect on M-cholinoreceptors and parasympathetic ganglia, n. vagus stimulation in cats; assay type: in vivo
Description: as §1
In experiments on five animals, the left nervus vagus was cut. Platinum electrodes were placed on the peripherial part to stimulate the nerve with pulses of 0.1 msec and an amplitude of 5 V. The nerve was stimulated every 10 seconds at a frequency of 30 Hz. The pulse rate was recorded (ECG) and the blood pressure in the femoral artery was measured with a mercury pressure gauge.

[4] = test system: rabbits; test: Allergizing action, Arthus-Sakharov phenomenon in rabbits; assay type: in vivo; conditions: seven subcutaneous injections at 5-day intervals
Description: In order to study the allergizing action of Tercuronium, we used the Arthus-Sakharov phenomenon. Experiments were carried on three rabbits. Tercuronium was injected to each rabbit in a dose of […] subcutaneously on the left side of the back in a volume of 0.2 to 0.25 ml, and 1 ml of horse serum was injected into the right side of the back (also subcutaneously). We made seven injections at 5-day in tervals. Horse serum alone was injected to the fourth (control) rabbit in the same order.

[5] = test system: ischio-gastrocnemius conduction; test: Block of ischio-gastrocnemius conduction in narcotized rabbits; assay type: in vivo
Description: In experiments on narcotized rabbits (chloralose, 50 mg/kg, and urethane, 500 mg/kg, given intravenously) the intravenous dose of Tercuronium that produced complete block of the ischio-gastrocnemius conduction was 0.025 ± 0.005 mcM/kg (five experiments).

[6] = Effect on arterial pressure in cats and rabbits; assay type: in vivo; conditions: rabbit, in vivo, iv, artificial ventilation
Description: (§2) Experiments were carried out on narcotized cats and rabbits (50 mg/kg of chloralose and 500 mg/kg urethane, intraperitoneally) and also on cats decerebrated at the quadrigeminal level. The blood pressure in the carotid artery was recorded with a mercury pressure gauge. The preparations were injected intravenously.
(§3) When Tercuronium was given in a quantity ten times exceeding the myoparalytic dose (0.8 mcM/kg) an insignificant and transient reduction (10 to 20 mm Hg) of the blood pressure was observed. The animals (7 cats and 5 rabbits) tolerated injections of very large doses of Tercuronium, viz., 10-20 mcM/kg, which is 200 times higher than the myoparalytic dose. […] In all experiments, in 1 to 2 hours, the arterial pressure restored completely or was close to the initial level.

[7] = test system: arterial pressure; test: Effect on arterial pressure in cats and rabbits; assay type: in vivo
Description: as §2, §3

[8] = test system: patients; test: Surgical operations, first series (maintenance of relaxation); assay type: in vivo, patients (human)
Description: We tried Tercuronium as a muscle relaxant in surgical operations on the abdominal and thoracic organs in 150 patients. The operations were carried out in conditions of intubation narcosis and artificial lung ventilation. Ether, fluorothane, nitrous oxide and barbiturates were used as anesthetics.
In the first series of observations (120 operations) Tercuronium was used as the main muscle relaxant for maintaining relaxation of the muscles. Tracheal intubation was carried out with muscle relaxation induced by dithilin-group agents. […] Complete muscle relaxation with the absence of active respiration continued on an average of 40 minutes. If, with the first signs of restoration of the muscle tone, we made another intravenous injection of Tercuronium in a dose constituting 1/3 to 1/2 of the initial one, complete relaxation continued for further 60 - 90 minutes.

[9] = test system: blood coagulation and erythrocytes; test: Effect on blood coagulation rate and resistance of erythrocytes; assay type: in vivo; conditions: two rabbits, two narcotized cats
[10] = Effect on sympathetic ganglia, third eyelid contraction in cats; assay type: in vivo; conditions: cat, in vivo, iv, read-out: ganglioblocking dose as multiple of myoparalytic dose
Description: (§4) Experiments were carried out on narcotized cats. A peripheral part of the sympathetic column on the neck was stimulated with electric pulses at 5 Hz. The duration of the stimulus was 1 msec, the amplitude 5 V. The contractions of the third eyelid (nictiating membrane) and the arterial (carotid) pressure were recorded with a mercury pressure gauge. We determined the intravenous dose of Tercuronium, α-tubocurarin and pancuronium that decreased the height of contraction of the third eyelid by 50 to 60 percent in conditions of prolonged stimulation of the sympathetic column.

[11] = test system: sympathetic ganglia; test: as above; assay type: in vivo
Description: as §4

[12] = test system: albino mice; test: Inhibition of turning from the lateral position in mice; assay type: in vivo
Source text: In experiments on albino mice, the dose of Tercuronium injected into the tail vein, that inhibited the symptom of turning from the lateral position in 50 percent of mice (ED50) was 0.06 mcM/kg (18 experiments); and 50 percent of mice perished from paralysis of the respiratory muscles (LD50) following an injection of 0.09 mcM/kg of Tercuronium.

[13] = Lethality by paralysis of respiratory muscles in rabbits; conditions: rabbit, in vivo
Source text: In another series of experiments, we determined the intravenous dose of the muscle relaxants that caused death of 50% of the animals due to paralysis of the respiratory muscles -- lethal dose 50% (LD50).

CC[N+](CC)(CC)c1ccc(-c2ccc(-c3ccc([N+](CC)(CC)CC)cc3)cc2)cc1 [Tercuronium, p,p"-bis-triethylammonio-n-terphenyl dibenzenesulphonate]
contractions produced in the muscle [1]: did not produce contractions in the muscle
depression after intravenous acetylcholine [2]: did not produce depression
response of n. vagus to stimulation ([3]; 0.1 and 1.0 mcM/kg): the response of n. vagus to stimulation did not change
heart contractility without stimulation of n. vagus ([3]; 0.1 and 1.0 mcM/kg intravenous): heart contractility was not affected
effect on parasympathetic part of the vegetative nerve system ([3]; 20 times the myoparalytic dose): does not produce any effect on the parasympathetic part of the vegetative nerve system
bronchospasm or salivation ([3]; very large dose, other experiments on animals): no bronchospasm or salivation were observed
local allergic reaction [4]: no reaction
ED100 ([5]; Oryctolagus cuniculus, narcotized rabbits, intravenous, five experiments, read-out: dose producing complete block of ischio-gastrocnemius conduction): 0.025 ± 0.005 µmol/kg
restoration of muscle contraction by neostigmin ([5]; neostigmin 0.1 mg/kg during complete block): always resulted in immediate and full restoration of the muscle contraction
selectivity ratio ([6]; 10-20 mcM/kg, read-out: tolerated dose as multiple of myoparalytic dose): 200
MTD ([6]; cats and rabbits, read-out: tolerated dose): 10 to 20 µmol/kg
blood pressure at very large doses ([7]; 10-20 mcM/kg): quickly and sharply dropped and then slowly normalized
arterial pressure on doses that inhibit respiration ([7]; active ventilation of the lungs): asphyxial rise in the arterial pressure
effect on arterial pressure of myoparalytic (complete block) dose ([7]; artificial ventilation): the arterial pressure was not affected
reduction of blood pressure ([7]; ten times the myoparalytic dose (0.8 mcM/kg)): 10-20 mm Hg
effect on arterial pressure, comparison ([7]; versus the other two muscle relaxants): mildest effect on the arterial pressure
arterial pressure and frequency of heart contractions ([8]; 0.12 - 0.15 mg/kg): No changes in arterial pressure ar frequency of heart contractions, that could be attributed to the injection of Tercuronium, were observed
duration of complete muscle relaxation with absence of active respiration ([8]; 0.12 - 0.15 mg/kg intravenous, average): 40 min
electromyographic character of action ([8]; electromyographic analysis): nondepolarizing muscle relaxant
postoperative complications ([8]; postoperative period): did not observe any case of insufficient efficacy of proserpin, muscular atomia, or insufficiency of active respiration, or recurarization
restoration of active respiration by proserpin ([8]; proserpin 2.5 mg at end of operation): always resulted in quick (within a few minutes) restoration of active respiration in full volume
blood coagulation rate and resistance of the erythrocytes [9]: did not discover any effect
selectivity ratio [10]: 10 to 15
arterial pressure at ganglioblocking dose [11]: the arterial pressure dropped as well
ED50 ([12]; Mus musculus, iv): 0.06 µmol/kg
myoparalytic action compared with pancuronium and α-tubocurarin ([12]; mice): several times lower than that of pancuronium and several times higher than that of α-tubocurarin
LD50 ([13]; intravenous): 0.03 µmol/kg
selectivity ratio ([13]; read-out: LD50 to HDD ratio): 1.4
